Laboratory results: patent publication US20180201592A1, “2-AMINO-1,3,4-THIADIAZINE AND 2-AMINO-1,3,4-OXADIAZINE BASED ANTIFUNGAL AGENTS” (F2G Limited, priority 2015, published 2018)

Legend:
Settings in all cases: banded MIC grade
A. terreus 49 = assay: Minimum inhibitory concentration, YAG medium; format: cell-based, Aspergillus terreus
Procedure, shortened: (§1)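 Growth inhibition was read as absorbance at 485 nm after spores of Aspergillus spp. were exposed for 24 hrs at 35° C to doubling dilutions of the compound. Dilutions were made in water starting from a 5 mg/mL DMSO stock, and MIC values were expressed in mg/L.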

A. fumigatus 210 = assay: Minimum inhibitory concentration, YAG medium; format: cell-based, Aspergillus fumigatus
Procedure, shortened: (§2)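 MIC, in mg/L, defined as the lowest drug level inhibiting growth by >70% relative to drug-free wells, judged by OD 485 nm after 24 hrs at 35° C. Spores (1-2×10^4 cfu/mL) were grown in YAG medium against doubling dilutions, usually 50-0.05 mg/L, repeated at 0.5-0.0005 mg/L where needed.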

Aspergillus flavus = assay: Minimum inhibitory concentration, YAG medium; format: cell-based
Procedure, shortened: as §1

Aspergillus terreus = assay: Minimum inhibitory concentration, YAG medium; format: cell-based
Procedure, shortened: as §1

Aspergillus niger = assay: Minimum inhibitory concentration, YAG medium; format: cell-based
Procedure, shortened: as §1

Aspergillus fumigatus = assay: Minimum inhibitory concentration, YAG medium; format: cell-based
Procedure, shortened: as §2

C. tropicalis = assay: Minimum inhibitory concentration, RPMI medium; format: cell-based
Procedure, shortened: (§3)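 Growth inhibition was judged from optical density at 485 nm per well after 24-48 hrs at 35° C. Test compound came from a 5 mg/mL DMSO stock, serially doubled in water before testing in RPMI 1640.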

C. parapsilosis = assay: Minimum inhibitory concentration, RPMI medium; format: cell-based
Procedure, shortened: as §3

C. albicans = assay: Minimum inhibitory concentration, RPMI medium; format: cell-based
Procedure, shortened: as §3

SMILES | MIC grade, A. TERREUS 49, YAG media (A. terreus 49) | MIC grade, A. FUMIGATUS 210, YAG media (A. fumigatus 210) | MIC grade, A. FLAVUS, YAG media (Aspergillus flavus) | MIC grade, A. TERREUS, YAG media (Aspergillus terreus) | MIC grade, A. NIGER, YAG media (Aspergillus niger) | MIC grade, A. FUMIGATUS, YAG media (Aspergillus fumigatus) | MIC grade, C. TROPICALIS, RPMI media (C. tropicalis) | MIC grade, C. PARAPSILOSIS, RPMI media (C. parapsilosis) | MIC grade, C. ALBICANS, RPMI media (C. albicans)
NC1=NN=C(CCOC2CCCCC2)CS1 | 2 (2: 1-5 mg/L) | 1 (1: ≥5 mg/L) | 2 (2: 1-5 mg/L) | 2 (2: 1-5 mg/L) | 2 (2: 1-5 mg/L) | 2 (2: 1-5 mg/L) | 1 (1: ≥20 mg/L) | 2 (2: 5-20 mg/L) | 1 (1: ≥20 mg/L)
NC1=NN=C(CCOCc2ccccc2)CS1 | 3 (3: 0.2-1 mg/L) | 2 (2: 1-5 mg/L) | 3 (3: 0.2-1 mg/L) | 3 (3: 0.2-1 mg/L) | 3 (3: 0.2-1 mg/L) | 3 (3: 0.2-1 mg/L) | 1 (1: ≥20 mg/L) | 3 (3: 1-5 mg/L) | 1 (1: ≥20 mg/L)
CCCCOCCC1=NN=C(N)SC1 | 4 (4: <0.2 mg/L) | 4 (4: <0.2 mg/L) | 3 (3: 0.2-1 mg/L) | 4 (4: <0.2 mg/L) | 4 (4: <0.2 mg/L) | 4 (4: <0.2 mg/L) | 2 (2: 5-20 mg/L) | 4 (4: <1 mg/L) | 1 (1: ≥20 mg/L)
CC(C)OCCC1=NN=C(N)SC1 | 2 (2: 1-5 mg/L) | 1 (1: ≥5 mg/L) | 1 (1: ≥5 mg/L) | 2 (2: 1-5 mg/L) | 1 (1: ≥5 mg/L) | 4 (4: <0.2 mg/L) | 1 (1: ≥20 mg/L) | 3 (3: 1-5 mg/L) | 1 (1: ≥20 mg/L)
COCCCC1=NN=C(N)SC1 | 4 (4: <0.2 mg/L) | 4 (4: <0.2 mg/L) | 4 (4: <0.2 mg/L) | 3 (3: 0.2-1 mg/L) | 4 (4: <0.2 mg/L) | 4 (4: <0.2 mg/L) | 2 (2: 5-20 mg/L) | 3 (3: 1-5 mg/L) | 3 (3: 1-5 mg/L)
NC1=NN=C(c2ccc(Cl)c(Cl)c2)CS1 | 1 (1: ≥5 mg/L) | 1 (1: ≥5 mg/L) | 1 (1: ≥5 mg/L) | 1 (1: ≥5 mg/L) | 2 (2: 1-5 mg/L) | 1 (1: ≥5 mg/L) | 1 (1: ≥20 mg/L) | 1 (1: ≥20 mg/L) | 1 (1: ≥20 mg/L)
Cc1cc(C)cc(C2=NN=C(N)SC2)c1 | 1 (1: ≥5 mg/L) | 2 (2: 1-5 mg/L) | 1 (1: ≥5 mg/L) | 1 (1: ≥5 mg/L) | 2 (2: 1-5 mg/L) | 1 (1: ≥5 mg/L) | 1 (1: ≥20 mg/L) | 1 (1: ≥20 mg/L) | 1 (1: ≥20 mg/L)
NC1=NN=C(c2ccc(C3CCCCC3)cc2)CS1 | 1 (1: ≥5 mg/L) | 1 (1: ≥5 mg/L) | 1 (1: ≥5 mg/L) | 1 (1: ≥5 mg/L) | 1 (1: ≥5 mg/L) | 1 (1: ≥5 mg/L) | 1 (1: ≥20 mg/L) | 1 (1: ≥20 mg/L) | 1 (1: ≥20 mg/L)
CC(C)c1ccc(C2=NN=C(N)SC2)cc1 | 2 (2: 1-5 mg/L) | 1 (1: ≥5 mg/L) | 1 (1: ≥5 mg/L) | 2 (2: 1-5 mg/L) | 1 (1: ≥5 mg/L) | 1 (1: ≥5 mg/L) | 1 (1: ≥20 mg/L) | 1 (1: ≥20 mg/L) | 1 (1: ≥20 mg/L)
NC1=NN=C(CCCCc2ccccc2)CS1 | 4 (4: <0.2 mg/L) | 4 (4: <0.2 mg/L) | 4 (4: <0.2 mg/L) | 4 (4: <0.2 mg/L) | 4 (4: <0.2 mg/L) | 4 (4: <0.2 mg/L) | 2 (2: 5-20 mg/L) | 4 (4: <1 mg/L) | 2 (2: 5-20 mg/L)
CCCc1ccc(C2=NN=C(N)SC2)cc1 | 3 (3: 0.2-1 mg/L) | 3 (3: 0.2-1 mg/L) | 2 (2: 1-5 mg/L) | 3 (3: 0.2-1 mg/L) | 2 (2: 1-5 mg/L) | 3 (3: 0.2-1 mg/L) | 1 (1: ≥20 mg/L) | 1 (1: ≥20 mg/L) | 1 (1: ≥20 mg/L)
COCCCCCC1=NN=C(N)SC1 | 4 (4: <0.2 mg/L) | 4 (4: <0.2 mg/L) | 4 (4: <0.2 mg/L) | 4 (4: <0.2 mg/L) | 4 (4: <0.2 mg/L) | 4 (4: <0.2 mg/L) | 3 (3: 1-5 mg/L) | 4 (4: <1 mg/L) | 4 (4: <1 mg/L)
NC1=NN=C(CCCCCOc2ccccc2)CS1 | 4 (4: <0.2 mg/L) | 4 (4: <0.2 mg/L) | 4 (4: <0.2 mg/L) | 4 (4: <0.2 mg/L) | 4 (4: <0.2 mg/L) | 4 (4: <0.2 mg/L) | 4 (4: <1 mg/L) | 4 (4: <1 mg/L) | 4 (4: <1 mg/L)
NC1=NN=C2c3ccccc3CCC2S1 (stereo not drawn) | 2 (2: 1-5 mg/L) | 1 (1: ≥5 mg/L) | 1 (1: ≥5 mg/L) | 1 (1: ≥5 mg/L) | 1 (1: ≥5 mg/L) | 2 (2: 1-5 mg/L) | 1 (1: ≥20 mg/L) | 1 (1: ≥20 mg/L) | 1 (1: ≥20 mg/L)
NC1=NNC2=C(CCCC2)S1 | 2 (2: 1-5 mg/L) | 3 (3: 0.2-1 mg/L) | 1 (1: ≥5 mg/L) | 2 (2: 1-5 mg/L) | 2 (2: 1-5 mg/L) | 2 (2: 1-5 mg/L) | 1 (1: ≥20 mg/L) | 1 (1: ≥20 mg/L) | 1 (1: ≥20 mg/L)
CCCCOC1CCC2=NN=C(N)SC2C1 (stereo not drawn) | 2 (2: 1-5 mg/L) | 3 (3: 0.2-1 mg/L) | 2 (2: 1-5 mg/L) | 2 (2: 1-5 mg/L) | 2 (2: 1-5 mg/L) | 1 (1: ≥5 mg/L) | 1 (1: ≥20 mg/L) | 1 (1: ≥20 mg/L) | 1 (1: ≥20 mg/L)
CCCCOC(=O)CC1=NN=C(N)SC1 | 3 (3: 0.2-1 mg/L) | 3 (3: 0.2-1 mg/L) | 2 (2: 1-5 mg/L) | 2 (2: 1-5 mg/L) | 3 (3: 0.2-1 mg/L) | 2 (2: 1-5 mg/L) | 1 (1: ≥20 mg/L) | 3 (3: 1-5 mg/L) | 1 (1: ≥20 mg/L)
CCOC(=O)c1cccc(C2=NN=C(N)SC2)c1 | 1 (1: ≥5 mg/L) | 1 (1: ≥5 mg/L) | 1 (1: ≥5 mg/L) | 1 (1: ≥5 mg/L) | 1 (1: ≥5 mg/L) | 1 (1: ≥5 mg/L) | 1 (1: ≥20 mg/L) | 1 (1: ≥20 mg/L) | 1 (1: ≥20 mg/L)
CCOC(=O)c1ccc(C2=CSC(N)=NN2)cc1 | 3 (3: 0.2-1 mg/L) | 4 (4: <0.2 mg/L) | 4 (4: <0.2 mg/L) | 4 (4: <0.2 mg/L) | 4 (4: <0.2 mg/L) | 4 (4: <0.2 mg/L) | 2 (2: 5-20 mg/L) | 4 (4: <1 mg/L) | 3 (3: 1-5 mg/L)
